The test addresses Muscarinic acetylcholine receptor M4 (Homo sapiens) (UniProt P08173). Kind of test: ACh curve leftward shift by hM4 PAMs, SAR follow-up, mechanism study, CHO cells, Gqi5 chimera, calcium mobilization (AID 623948). As to conditions: for % ACh max / outcome: ACh fold shift; for % ACh max: measured here: ACh max response with compound; for % ACh max / fold shift: at 30 µM, stronger effect = higher value.

Structures are written as SMILES. Activity calls are given as the source filed them.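 How the source made its calls: active means compound shifting the acetylcholine potency curve by more than threefold; inactive means the rest.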

Sequence of Muscarinic acetylcholine receptor M4 (Homo sapiens) (P08173 whole entry, looked up): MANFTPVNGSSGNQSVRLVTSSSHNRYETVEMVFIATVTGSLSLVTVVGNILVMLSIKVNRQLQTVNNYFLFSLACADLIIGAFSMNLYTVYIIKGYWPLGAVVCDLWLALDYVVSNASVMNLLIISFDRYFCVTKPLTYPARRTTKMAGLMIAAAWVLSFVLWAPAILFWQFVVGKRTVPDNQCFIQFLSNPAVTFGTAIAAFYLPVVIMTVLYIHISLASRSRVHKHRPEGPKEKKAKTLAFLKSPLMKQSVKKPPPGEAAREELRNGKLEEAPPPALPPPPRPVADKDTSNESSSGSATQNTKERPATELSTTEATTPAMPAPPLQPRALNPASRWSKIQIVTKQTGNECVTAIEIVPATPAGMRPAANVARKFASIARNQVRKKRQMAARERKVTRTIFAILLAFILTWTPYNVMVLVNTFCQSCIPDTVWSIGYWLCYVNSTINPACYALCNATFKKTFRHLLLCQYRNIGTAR

As for `COc1ccc(C)c2sc(NC(=O)c3cnccn3)nc12`, the % ACh max came to 110% and the fold shift is 3.65.

Regarding `COc1ccc(C)c2sc(NC(=O)c3ccco3)nc12`, the % ACh max was found to be 112% and the fold shift was 3.63.

`Cc1nc2sc(C(=O)NC3CCOCC3)c(N)c2c(C)c1Cl`: the outcome was “active; potentiator”.

Turning to `Cc1nc2sc(C(=O)NCc3ccncn3)c(N)c2c(C)c1Cl`, the outcome is “active; potentiator”.

On to `Cc1nc2sc(C(=O)NCc3ccncc3)c(N)c2c(C)c1Cl`, for which the outcome is “active; potentiator”.

Take `COc1ccc(C)c2sc(NC(=O)c3cccnc3)nc12`: the % ACh max amounted to 105% and the fold shift was 2.93.

Regarding `COc1ccc(C)c2sc(NC(=O)c3ccncc3)nc12`, the % ACh max stood at 110% and the fold shift is 14.9.

Consider `Cc1nc2sc(C(=O)NCc3ccccc3)c(N)c2c(C)c1Cl`, for which the outcome was “active; potentiator”.

`Cc1nc2sc(C(=O)NCCc3ccncc3)c(N)c2c(C)c1Cl`: the outcome was “active; potentiator”.

For `Cc1nc2sc(C(=O)NC3CC3)c(N)c2c(C)c1Cl`, the outcome is “active; potentiator”.

For the compound `Cc1nc2sc(C(=O)NCc3ccc4c(c3)OCO4)c(N)c2c(C)c1Cl`, the outcome was “active; potentiator”.

As for `Cc1nc2sc(C(=O)NCc3cccnc3)c(N)c2c(C)c1Cl`, the outcome was “active; potentiator”.

With `Cc1nc2sc(C(=O)NCc3nccs3)c(N)c2c(C)c1Cl`, the outcome is “active; potentiator”.

Regarding `Cc1nc2sc(C(=O)NCc3cccc(F)c3F)c(N)c2c(C)c1Cl`, the outcome is “active; potentiator”.

As to `COc1ccc(C)c2sc(NC(=O)C3=COCCO3)nc12`, the % ACh max came to 106% and the fold shift is 5.98.

For the origin of these results see PubChem BioAssay AID623948 (Vanderbilt Specialized Chemistry Center, 2012).
